Data reported in US7666845B2, “Compounds having inhibitory activity against sodium-dependent glucose transporter” (Janssen Pharmaceutica N.V., priority 2006, dated 2010).

Molecular target: T1, human SGLT2 (Homo sapiens, UniProt P31639)
T1 construct: expressed in transfected cells; host or cells: CHOK1 (Chinese hamster ovary) cells under Geneticin selection
T1 sequence (P31639 1-672): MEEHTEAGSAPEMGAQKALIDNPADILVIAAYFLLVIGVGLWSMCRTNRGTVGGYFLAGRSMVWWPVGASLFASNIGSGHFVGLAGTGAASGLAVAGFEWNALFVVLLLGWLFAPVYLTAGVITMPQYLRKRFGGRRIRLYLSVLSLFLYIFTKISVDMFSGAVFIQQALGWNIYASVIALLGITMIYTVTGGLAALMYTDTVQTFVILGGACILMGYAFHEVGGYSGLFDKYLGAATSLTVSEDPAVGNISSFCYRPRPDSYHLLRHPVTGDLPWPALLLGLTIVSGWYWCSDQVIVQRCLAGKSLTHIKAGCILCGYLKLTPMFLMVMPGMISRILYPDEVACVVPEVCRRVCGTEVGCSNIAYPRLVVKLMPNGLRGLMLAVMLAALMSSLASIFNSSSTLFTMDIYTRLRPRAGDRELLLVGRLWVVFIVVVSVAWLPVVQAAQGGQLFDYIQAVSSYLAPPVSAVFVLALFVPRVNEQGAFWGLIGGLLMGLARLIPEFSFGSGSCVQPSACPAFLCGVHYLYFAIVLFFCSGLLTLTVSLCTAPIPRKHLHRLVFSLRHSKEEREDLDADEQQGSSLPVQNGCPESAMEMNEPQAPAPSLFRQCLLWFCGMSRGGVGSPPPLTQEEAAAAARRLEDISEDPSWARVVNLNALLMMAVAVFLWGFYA
Experiment: 14C-AMG uptake in CHOK1 cells expressing human SGLT2
Type: cell-based
Conditions: 14C-AMG 0.5 mM, 2 hours at 37° C., read-out: Human SGLT2 inhibition IC50
Experimental: CHOK1 cells expressing human SGLT2 were seeded in 96-well white walled plates at a density of 50,000 cells/well in F-12 nutrient mixture (Ham's F-12) containing 10% fetal bovine serum, 400 μg/ml Geneticin, 50 units/ml sodium penicillin G (Gibco-BRL) and 50 μg/ml streptomycin sulfate. After 2 days of culture at 37° C. in a humidified atmosphere containing 5% CO2, cells were washed once with the assay buffer (137 mM NaCl, 5 mM KCl, 1 mM CaCl2, 1 mM MgCl2, 50 mM Hepes, and 20 mM Tris, pH 7.4) and incubated with 80 μl of the buffer containing test compounds for 10 min at 37° C. Test compounds were dissolved in DMSO. The final concentration of DMSO was 0.5%. The transport reaction was initiated by addition of 20 μl [^14C]-methyl-α-D-glucopyranoside (^14C-AMG, 0.08 uCi per well) solution (final concentration, 0.5 mM). After incubation for 2 hours at 37° C., the uptake was stopped by aspiration of the incubation mixture, the cells were washed three times with ice-cold PBS. Then, cells were solubilized with 0.3 N NaOH and scintalin was added for determination of radioactivity by a liquid scintillation counter. Nonspecific AMG uptake was defined as that which occurred in the presence of 100 μM of phlorizin, a specific inhibitor of sodium-dependent glucose cotransporter. Specific uptake was normalized for the protein concentrations measured by the method of Bradford. […]

Compound Cc1ccc(C2OC(C(=O)O)C(O)C(O)C2O)cc1Cc1ccc(-c2ccc(F)cc2)s1 (stereo not shown) [Compound 1, 6-{3-[5-(4-Fluoro-phenyl)-thiophen-2-ylmethyl]-4-methyl-phenyl}-3,4,5-trihydroxy-tetrahydro-pyran-2-carboxylic acid] has an IC50 of 1100 nM.
